Measurements from US6906205B2, “Spiro and dispiro 1,2,4-trioxolane antimalarials” (Medicines for Malaria Venture MMV, priority 2002, dated 2005).
Converted amounts (≈) assume the structure as drawn.

Columns and labels:
[1] = system: P. falciparum NF54 strain (sensitive to standard antimalarials); assay: semiautomated microdilution assay, [3H]-hypoxanthine incorporation, NF54 strain; assay type: cell-based, Plasmodium falciparum; settings: for IC50 (ng/ml) NF54: NF54 strain, 72 h incubation; for IC50: Plasmodium falciparum, NF54, 72 h, read-out: IC50 (ng/ml) NF54
Experimental: Various OZ compounds were tested by the semiautomated microdilution assay against intraerythrocytic forms of Plasmodium falciparum derived from asynchronous stock cultures.
Fifty percent inhibitory concentration (IC50) were estimated by Logit regression analysis.

[2] = system: P. falciparum K1 strain (Thailand resistant to chloroquine); assay: semiautomated microdilution assay, [3H]-hypoxanthine incorporation, K1 strain; assay type: cell-based, Plasmodium falciparum; settings: for IC50 (ng/ml) K1: K1 strain, 72 h incubation; for IC50: Plasmodium falciparum, K1, 72 h, read-out: IC50 (ng/ml) K1
Method in brief: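 Intraerythrocytic stages from unsynchronised stock cultures are exposed to test compounds in a semiautomated microdilution format, and fifty percent inhibitory concentrations are then fitted by logit regression.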

[3] = system: ANKA strain of P. berghei; assay: single dose STI in vivo screen in infected mice; set-up: species or system Plasmodium berghei; settings: for Activity (%) po / Activity (%) sc / Activity (%) SSVpo: percent reduction in parasitemia day 3 post-infection, mice; for Activity (%) po / Survival (days) po: single 10 mg/kg po in 3% ethanol and 7% Tween 80; for Activity (%) sc / Survival (days) sc: single 10 mg/kg sc in 3% ethanol and 7% Tween 80; for Survival (days) po / Survival (days) sc / Survival (days) SSVpo: untreated control 5.6 ± 0.3; for Activity (%) SSVpo: single po dose in standard suspending vehicle (SSV); for Survival (days) SSVpo: single po dose in SSV
Method in brief: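 Groups of 3-5 Moro SPF or NMRI mice infected with the ANKA strain of P. berghei received a single dose of trioxolane on day one post-infection. The compound was given in 3% ethanol and 7% Tween 80 or in SSV (0.5% w/v CMC, 0.5% v/v benzyl alcohol, 0.4% v/v Tween 80, 0.9% w/v sodium chloride in water). Antimalarial activity was scored as percent reduction in parasitemia on day three and as survival time versus untreated controls. Survival to day 30 counted as cure.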

CCN(CC)C(=O)C1CCC2(CC1)OOC1(O2)C2CC3CC(C2)CC1C3 (stereo not shown) [OZ73]
IC50 (ng/ml) NF54 [1]: 8.2 ng/mL (≈ 22.6 nM) | IC50 (ng/ml) K1 [2]: 6.5 ng/mL (≈ 17.9 nM) | Activity (%) po [3]: 27% | Activity (%) sc [3]: 36% | Survival (days) po [3]: 6.0 days | Survival (days) sc [3]: 6.7 days

O=C(OC1CCC2(CC1)OOC1(O2)C2CC3CC(C2)CC1C3)c1ccccc1 (stereo not shown) [OZ74]
IC50 (ng/ml) NF54 [1]: 3.5 ng/mL (≈ 9.1 nM) | IC50 (ng/ml) K1 [2]: 2.3 ng/mL (≈ 5.98 nM) | Activity (%) po [3]: 63% | Activity (%) sc [3]: 99.97% | Survival (days) po [3]: 6.3 days | Survival (days) sc [3]: 10.0 days

N#CC1(c2ccc(Cl)c(Cl)c2)CCC2(CC1)OOC1(O2)C2CC3CC(C2)CC1C3 (stereo not shown) [OZ75]
IC50 (ng/ml) NF54 [1]: 4.3 ng/mL (≈ 9.9 nM) | IC50 (ng/ml) K1 [2]: 2.4 ng/mL (≈ 5.53 nM) | Activity (%) po [3]: 77% | Activity (%) sc [3]: 5% | Survival (days) po [3]: 7.3 days | Survival (days) sc [3]: 5.0 days

COC1(c2ccc(F)cc2)CCC2(CC1)OOC1(O2)C2CC3CC(C2)CC1C3 (stereo not shown) [OZ77]
IC50 (ng/ml) NF54 [1]: 2.2 ng/mL (≈ 5.66 nM) | IC50 (ng/ml) K1 [2]: 1.4 ng/mL (≈ 3.6 nM) | Activity (%) po [3]: 99.9% | Activity (%) sc [3]: 98% | Activity (%) SSVpo [3]: 74% | Survival (days) po [3]: 9.0 days | Survival (days) sc [3]: 8.3 days | Survival (days) SSVpo [3]: 6.0 days

CC(=O)OCC(=O)N1CCC2(CC1)OOC1(O2)C2CC3CC(C2)CC1C3 (stereo not shown) [OZ82]
IC50 (ng/ml) NF54 [1]: 1.2 ng/mL (≈ 3.28 nM) | IC50 (ng/ml) K1 [2]: 0.48 ng/mL (≈ 1.31 nM) | Activity (%) po [3]: 91% | Activity (%) sc [3]: 79% | Survival (days) po [3]: 7.3 days | Survival (days) sc [3]: 7.0 days

c1ccc2c(c1)CCCC21OOC2(O1)C1CC3CC(C1)CC2C3 (stereo not shown) [OZ84]
IC50 (ng/ml) NF54 [1]: 2.1 ng/mL (≈ 6.72 nM) | IC50 (ng/ml) K1 [2]: 1.4 ng/mL (≈ 4.48 nM) | Activity (%) po [3]: 92% | Activity (%) sc [3]: 99.99% | Survival (days) po [3]: 7.7 days | Survival (days) sc [3]: 14.7 days

c1ccc2c(c1)CCC1(C2)OOC2(O1)C1CC3CC(C1)CC2C3 (stereo not shown) [OZ85]
IC50 (ng/ml) NF54 [1]: 1.8 ng/mL (≈ 5.76 nM) | IC50 (ng/ml) K1 [2]: 0.86 ng/mL (≈ 2.75 nM) | Activity (%) po [3]: 34% | Activity (%) sc [3]: 99.7% | Survival (days) po [3]: 6.0 days | Survival (days) sc [3]: 8.3 days

O=S(=O)(c1ccc(F)cc1)N1CCC2(CC1)OOC1(O2)C2CC3CC(C2)CC1C3 (stereo not shown) [OZ86]
IC50 (ng/ml) NF54 [1]: 2.0 ng/mL (≈ 4.72 nM) | IC50 (ng/ml) K1 [2]: 0.80 ng/mL (≈ 1.89 nM) | Activity (%) po [3]: 77% | Activity (%) sc [3]: 99.9% | Survival (days) po [3]: 6.7 days | Survival (days) sc [3]: 11.3 days

O=C(CCl)N1CCC2(CC1)OOC1(O2)C2CC3CC(C2)CC1C3 (stereo not shown) [OZ87]
IC50 (ng/ml) NF54 [1]: 4.4 ng/mL (≈ 12.9 nM) | IC50 (ng/ml) K1 [2]: 3.6 ng/mL (≈ 10.5 nM) | Activity (%) po [3]: 22% | Activity (%) sc [3]: 53% | Survival (days) po [3]: 5.7 days | Survival (days) sc [3]: 6.0 days

O=C(OCCC1CCC2(CC1)OOC1(O2)C2CC3CC(C2)CC1C3)c1ccc([N+](=O)[O-])cc1 (stereo not shown) [OZ88]
IC50 (ng/ml) NF54 [1]: 4.2 ng/mL (≈ 9.18 nM) | IC50 (ng/ml) K1 [2]: 5.7 ng/mL (≈ 12.5 nM) | Activity (%) po [3]: 62% | Activity (%) sc [3]: 99.1% | Survival (days) po [3]: 6.0 days | Survival (days) sc [3]: 11.7 days

OCCC1CCC2(CC1)OOC1(O2)C2CC3CC(C2)CC1C3 (stereo not shown) [OZ89]
IC50 [1]: 0.75 ng/mL (≈ 2.43 nM) | IC50 [2]: 0.3 ng/mL (≈ 0.973 nM) | Activity (%) po [3]: 94% | Activity (%) sc [3]: 99.8% | Activity (%) SSVpo [3]: 89% | Survival (days) po [3]: 7.3 days | Survival (days) sc [3]: 8.7 days | Survival (days) SSVpo [3]: 6.7 days

CC1(O)CCC2(CC1)OOC1(O2)C2CC3CC(C2)CC1C3 (stereo not shown) [OZ90]
IC50 [1]: 0.84 ng/mL (≈ 2.85 nM) | IC50 [2]: 0.44 ng/mL (≈ 1.49 nM) | Activity (%) po [3]: 89% | Activity (%) sc [3]: 99% | Activity (%) SSVpo [3]: 95% | Survival (days) po [3]: 7.0 days | Survival (days) sc [3]: 8.0 days | Survival (days) SSVpo [3]: 7.0 days

CC1(C)C2CCC1(CS(=O)(=O)N1CCC3(CC1)OOC1(O3)C3CC4CC(C3)CC1C4)C(=O)C2 (stereo not shown) [OZ91]
IC50 (ng/ml) NF54 [1]: 0.42 ng/mL (≈ 0.876 nM) | IC50 (ng/ml) K1 [2]: 1.4 ng/mL (≈ 2.92 nM) | Activity (%) po [3]: 20% | Activity (%) sc [3]: 85% | Activity (%) SSVpo [3]: 0% | Survival (days) po [3]: 5.7 days | Survival (days) sc [3]: 7.3 days | Survival (days) SSVpo [3]: 6.0 days

CCCCS(=O)(=O)N1CCC2(CC1)OOC1(O2)C2CC3CC(C2)CC1C3 (stereo not shown) [OZ92]
IC50 (ng/ml) NF54 [1]: 0.40 ng/mL (≈ 1.04 nM) | IC50 (ng/ml) K1 [2]: 1.6 ng/mL (≈ 4.15 nM) | Activity (%) po [3]: 81% | Activity (%) sc [3]: 99.98% | Activity (%) SSVpo [3]: 35% | Survival (days) po [3]: 6.7 days | Survival (days) sc [3]: 10.0 days | Survival (days) SSVpo [3]: 6.3 days

O=C(CN1C(=O)c2ccccc2C1=O)N1CCC2(CC1)OOC1(O2)C2CC3CC(C2)CC1C3 (stereo not shown) [OZ93]
IC50 (ng/ml) NF54 [1]: 0.92 ng/mL (≈ 2.03 nM) | IC50 (ng/ml) K1 [2]: 3.3 ng/mL (≈ 7.29 nM) | Activity (%) po [3]: 57% | Activity (%) sc [3]: 100% | Activity (%) SSVpo [3]: 3% | Survival (days) po [3]: 6.7 days | Survival (days) sc [3]: 13.3 days | Survival (days) SSVpo [3]: 6.0 days

c1ccc2c(c1)-c1ccccc1C21OOC2(O1)C1CC3CC(C1)CC2C3 (stereo not shown) [OZ94]
IC50 (ng/ml) NF54 [1]: 28 ng/mL (≈ 80.8 nM) | IC50 (ng/ml) K1 [2]: 57 ng/mL (≈ 165 nM) | Activity (%) po [3]: 21% | Activity (%) sc [3]: 11% | Activity (%) SSVpo [3]: 0% | Survival (days) po [3]: 6.0 days | Survival (days) sc [3]: 5.3 days | Survival (days) SSVpo [3]: 5.7 days

O=[N+]([O-])c1ccc(C2(c3ccccc3)OOC3(O2)C2CC4CC(C2)CC3C4)cc1 (stereo not shown) [OZ95]
IC50 (ng/ml) NF54 [1]: 1.3 ng/mL (≈ 3.3 nM) | IC50 (ng/ml) K1 [2]: 2.8 ng/mL (≈ 7.12 nM) | Activity (%) po [3]: 31% | Activity (%) sc [3]: 49% | Activity (%) SSVpo [3]: 0% | Survival (days) po [3]: 6.0/6.0/6.0 days | Survival (days) sc [3]: 6.0/6.0/6.0 days | Survival (days) SSVpo [3]: 6.0/6.0/6.0 days

O=[N+]([O-])c1cc(C2(c3ccc(Cl)c([N+](=O)[O-])c3)OOC3(O2)C2CC4CC(C2)CC3C4)ccc1Cl (stereo not shown) [OZ96]
IC50 (ng/ml) NF54 [1]: > 10 ng/mL | IC50 (ng/ml) K1 [2]: 8.4 ng/mL (≈ 16.6 nM) | Activity (%) po [3]: 12% | Activity (%) sc [3]: 19% | Activity (%) SSVpo [3]: 14% | Survival (days) po [3]: 5.7 days | Survival (days) sc [3]: 5.3 days | Survival (days) SSVpo [3]: 5.7 days

O=C1c2ccccc2C(=O)N1CC1(c2ccccc2)CCC2(CC1)OOC1(O2)C2CC3CC(C2)CC1C3 (stereo not shown) [OZ97]
IC50 (ng/ml) NF54 [1]: 1.8 ng/mL (≈ 3.6 nM) | IC50 (ng/ml) K1 [2]: 2.2 ng/mL (≈ 4.4 nM) | Activity (%) po [3]: 59% | Activity (%) sc [3]: 66% | Activity (%) SSVpo [3]: 2% | Survival (days) po [3]: 6.7 days | Survival (days) sc [3]: 7.0 days | Survival (days) SSVpo [3]: 5.3 days

COC(=O)C1(c2ccccc2)CCC2(CC1)OOC1(O2)C2CC3CC(C2)CC1C3 (stereo not shown) [OZ98]
IC50 (ng/ml) NF54 [1]: 0.9 ng/mL (≈ 2.26 nM) | IC50 (ng/ml) K1 [2]: 2.3 ng/mL (≈ 5.77 nM) | Activity (%) po [3]: 72% | Activity (%) sc [3]: 77% | Activity (%) SSVpo [3]: 11% | Survival (days) po [3]: 6.3 days | Survival (days) sc [3]: 7.3 days | Survival (days) SSVpo [3]: 5.3 days
